Legend:
CB1 receptor = target: T1, CB1 receptor (Homo sapiens, UniProt P21554); test: Binding assay for CB1 agonists or inverse agonists (SK-N-MC membranes, [3H]-CP-55,940); settings: for inhibition at 1 µM: read-out: CB1 receptor binding percent inhibition, test concentration 1 μM (footnote 1); for CB1 receptor binding average percent inhibition: value shown is an average percent inhibition (footnote 5), concentration not given; for inhibition at 0.2 µM: read-out: CB1 receptor binding percent inhibition, test concentration 0.2 μM (footnote 2)
T1 construct: expressed in transfected cells
Protocol: (§1) The human CB1 and CB2 receptors were stably expressed in SK-N-MC cells transfected with pcDNA3 CB-1 (human) or pcDNA3 CB-2 (human). The cells were grown in T-180 cell culture flasks under standard cell culture conditions at 37° C. in a 5% CO2 atmosphere. The cells were harvested by trysinization and homogenized in a homogenization buffer (10 mM Tris, 0.2 mM MgCl2, 5 mM KCl, with protease inhibitors aprotinin, leupeptin, pepstatin A and bacitracin) and centrifuged (2000 g). The supernatant was then centrifuged in 2M sucrose (31,300 g) to produce a semi-purified membrane pellet. The pellet was resuspended in homogenization and stored at −80° C.
(§2) On the day of the assay, the pellet was thawed on ice and diluted in assay buffer (50 mM Tris-HCl, 5 mM MgCl2, 2.5 mM EDTA, 0.5 mg/mL fatty acid free bovine serum aldumin, pH 7.5). The diluted membrane pellet was added with buffer, either a test compound or vehicle standard and the radioligand [H]^3+-CP-55,940 (0.2 mM) to the wells of a 96-well polypropylene plate. Non-specific binding was measured in wells containing WIN 55,212 (10 uM). The plate was covered and incubated for 90 minutes at 30° C. The contents were then aspirated onto a Packard Unifilter GF/C filter bottom plate prewet with 0.5% polyethyleneimine. The wells of the polypropylene plate were rinsed and aspirated seven times with a 0.9% saline-0.5% Tween 20 solution. The Unifilter plate was dried, a scintillation cocktail was added to each well and the counts representing binding were quantitated in a TopCount scintillation counter.
(§3) For compounds tested, an IC50 binding value was obtained from percent inhibition studies in which various test concentrations were used. The binding value was calculated by linear regression.

CB2 receptor = target: T2, CB2 receptor (Homo sapiens, UniProt P34972); test: Binding assay for CB2 agonists or inverse agonists (SK-N-MC membranes, [3H]-CP-55,940); settings: for CB2 receptor binding percent inhibition: test concentration not stated; for inhibition at 0.2 µM: test concentration 0.2 μM (footnote 2)
T2 construct: expressed in transfected cells
Protocol: as §1
as §2, with “The diluted membrane pellet was added with buffer, either a test compound or vehicle standard and the radioligand [H]^3+-CP-55,940 (0.2 mM) to the wells of a 96-well polypropylene plate. Non-specific binding was measured in wells containing WIN 55,212 (10 uM).” left out
as §3

[1] = read-out: CB2 receptor binding percent inhibition

T2 sequence (P34972 whole entry): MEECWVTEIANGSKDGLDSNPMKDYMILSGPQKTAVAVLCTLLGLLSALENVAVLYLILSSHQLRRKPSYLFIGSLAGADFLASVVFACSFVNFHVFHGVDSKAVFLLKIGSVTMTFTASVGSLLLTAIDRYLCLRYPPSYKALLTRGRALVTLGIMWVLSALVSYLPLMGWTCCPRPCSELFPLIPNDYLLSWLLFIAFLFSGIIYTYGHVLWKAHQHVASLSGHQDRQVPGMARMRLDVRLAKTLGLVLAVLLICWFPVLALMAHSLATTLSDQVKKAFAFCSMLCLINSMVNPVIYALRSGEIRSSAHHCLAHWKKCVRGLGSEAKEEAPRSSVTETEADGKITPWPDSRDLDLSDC
T1 sequence (P21554 whole entry): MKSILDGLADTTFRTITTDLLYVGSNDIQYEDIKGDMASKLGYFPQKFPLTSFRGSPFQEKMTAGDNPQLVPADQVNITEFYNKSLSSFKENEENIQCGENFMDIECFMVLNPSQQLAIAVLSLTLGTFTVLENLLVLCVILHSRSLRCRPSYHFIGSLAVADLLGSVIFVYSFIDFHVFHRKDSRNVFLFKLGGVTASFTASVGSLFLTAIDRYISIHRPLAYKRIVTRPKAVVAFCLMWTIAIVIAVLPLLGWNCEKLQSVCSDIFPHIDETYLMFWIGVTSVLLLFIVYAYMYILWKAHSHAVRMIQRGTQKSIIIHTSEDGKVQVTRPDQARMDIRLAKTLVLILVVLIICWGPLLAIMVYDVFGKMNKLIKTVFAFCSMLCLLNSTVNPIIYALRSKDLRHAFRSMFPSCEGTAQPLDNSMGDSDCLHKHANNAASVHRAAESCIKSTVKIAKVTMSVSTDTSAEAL

SMILES	inhibition at 1 µM (CB1 receptor) [%]	CB2 receptor binding percent inhibition (CB2 receptor) [%]	further results
O=C(NC12CC3CC(CC(C3)C1)C2)c1nn(-c2ccc(Cl)cc2Cl)c2c1CCCCC2Cc1cccc(Cl)c1 (centres unmarked) [Cpd 22, 8-(3-chloro-benzyl)-1-(2,4-dichloro-phenyl)-1,4,5,6,7,8-hexahydro-cycloheptapyrazole-3-carboxylic acid adamantan-1-ylamide]	58	25	–
COC(=O)[C@H](Cc1ccc(F)cc1)NC(=O)c1nn(C2CCCCC2)c2c1CCCCC2Cc1ccc(F)cc1 (stereo partly drawn) [Cpd 63, (2S)-2-{[1-cyclohexyl-8-(4-fluoro-benzyl)-1,4,5,6,7,8-hexahydro-cycloheptapyrazole-3-carbonyl]-amino}-3-(4-fluoro-phenyl)-propionic acid methyl ester]	29	69	–
CCOC(=O)[C@H]1C2C=CC(C2)[C@H]1NC(=O)c1nn(C2CCCCC2)c2c1CCCCC2Cc1cccc(F)c1 (stereo partly drawn) [Cpd 74, (2S,3R)-3-{[1-cyclohexyl-8-(3-fluoro-benzyl)-1,4,5,6,7,8-hexahydro-cycloheptapyrazole-3-carbonyl]-amino}-bicyclo[2.2.1]hept-5-ene-2-carboxylic acid ethyl ester]	–	10	CB1 receptor binding average percent inhibition (CB1 receptor): ^(5)1%
O=C(NC1CCC1)c1nn(-c2ccc(Cl)cc2Cl)c2c1CCCCC2Cc1cccc(Cl)c1 (centres unmarked) [Cpd 24, 8-(3-chloro-benzyl)-1-(2,4-dichloro-phenyl)-1,4,5,6,7,8-hexahydro-cycloheptapyrazole-3-carboxylic acid cyclobutylamide]	28	0	–
O=C(N[C@@H]1c2ccccc2C[C@@H]1O)c1nn(-c2ccc(F)cc2F)c2c1CCCCC2Cc1cccc(F)c1 (stereo partly drawn) [Cpd 100, 1-(2,4-difluoro-phenyl)-8-(3-fluoro-benzyl)-1,4,5,6,7,8-hexahydro-cycloheptapyrazole-3-carboxylic acid [(1R,2S)-2-hydroxy-indan-1-yl]-amide]	31	9	–
O=C(NC1CC1)c1nn(C2CCCCC2)c2c1CCCCC2Cc1cccc(Cl)c1 (centres unmarked) [Cpd 32, 8-(3-chloro-benzyl)-1-cyclohexyl-1,4,5,6,7,8-hexahydro-cycloheptapyrazole-3-carboxylic acid cyclopropylamide]	0	0	–
O=C(N[C@@H](CO)c1ccccc1)c1nn(-c2nccc(C(F)(F)F)n2)c2c1CCCCC2Cc1cccc(Cl)c1 (stereo partly drawn) [Cpd 176, 8-(3-chloro-benzyl)-1-(4-trifluoromethyl-pyrimidin-2-yl)-1,4,5,6,7,8-hexahydro-cycloheptapyrazole-3-carboxylic acid [(1R)-2-hydroxy-1-phenyl-ethyl]-amide]	–	–	inhibition at 0.2 µM (CB1 receptor): 4%; inhibition at 0.2 µM (CB2 receptor; [1]): 43%
COC(=O)[C@@H](Cc1ccc(O)cc1)NC(=O)c1nn(-c2ccc(F)cc2F)c2c1CCCCC2Cc1cccc(F)c1 (stereo partly drawn) [Cpd 95, (2R)-2-{[1-(2,4-difluoro-phenyl)-8-(3-fluoro-benzyl)-1,4,5,6,7,8-hexahydro-cycloheptapyrazole-3-carbonyl]-amino}-3-(4-hydroxy-phenyl)-propionic acid methyl ester]	36	35	–
O=C(N[C@H](CCl)c1ccccc1)c1nn(-c2ccc(F)cc2F)c2c1CCCCC2Cc1cccc(F)c1 (stereo partly drawn) [Cpd 169, 1-(2,4-difluoro-phenyl)-8-(3-fluoro-benzyl)-1,4,5,6,7,8-hexahydro-cycloheptapyrazole-3-carboxylic acid [(1S)-2-chloro-1-phenyl-ethyl]-amide]	–	–	inhibition at 0.2 µM (CB1 receptor): 24%; inhibition at 0.2 µM (CB2 receptor; [1]): 14%
O=C(NN1CCCCC1)c1nn(C2CCCCC2)c2c1CCCCC2Cc1ccc(F)cc1 (centres unmarked) [Cpd 62, 1-cyclohexyl-8-(4-fluoro-benzyl)-1,4,5,6,7,8-hexahydro-cycloheptapyrazole-3-carboxylic acid piperidin-1-ylamide]	5	5	–
O=C(NN1CCOCC1)c1nn(C2CCCCC2)c2c1CCCCC2Cc1ccc(F)cc1 (centres unmarked) [Cpd 89, 1-cyclohexyl-8-(4-fluoro-benzyl)-1,4,5,6,7,8-hexahydro-cycloheptapyrazole-3-carboxylic acid morpholin-4-ylamide]	11	0	–
Cn1nc(C(=O)NC2CCC2)c2c1C(Cc1ccccc1Cl)CCCC2 (centres unmarked) [Cpd 39, 8-(2-chloro-benzyl)-1-methyl-1,4,5,6,7,8-hexahydro-cycloheptapyrazole-3-carboxylic acid cyclobutylamide]	0	30	–
O=C(NC1CCC1)c1nn(-c2ccc(Cl)cc2Cl)c2c1CCCCC2Cc1ccc(F)cc1 (centres unmarked) [Cpd 70, 1-(2,4-dichloro-phenyl)-8-(4-fluoro-benzyl)-1,4,5,6,7,8-hexahydro-cycloheptapyrazole-3-carboxylic acid cyclobutylamide]	–	3	CB1 receptor binding average percent inhibition (CB1 receptor): ^(5)37%
C[C@@H](NC(=O)c1nn(-c2ccncc2)c2c1CCCC/C2=C\c1ccc(Cl)cc1)C1CCCCC1 [Cpd 180, (8E)-8-(4-chloro-benzylidene)-1-pyridin-4-yl-1,4,5,6,7,8-hexahydro-cycloheptapyrazole-3-carboxylic acid [(1R)-1-cyclohexyl-ethyl]-amide]	–	–	inhibition at 0.2 µM (CB1 receptor): 40%; inhibition at 0.2 µM (CB2 receptor; [1]): 86%
O=C(NC1CCC1)c1nn(C2CCCCC2)c2c1CCCCC2Cc1cccc(Cl)c1 (centres unmarked) [Cpd 36, 8-(3-chloro-benzyl)-1-cyclohexyl-1,4,5,6,7,8-hexahydro-cycloheptapyrazole-3-carboxylic acid cyclobutylamide]	25	0	–
C[C@@H](NC(=O)c1nn(C2CCCCC2)c2c1CCCCC2Cc1ccc(Cl)cc1)c1ccccc1 (stereo partly drawn) [Cpd 6, 8-(4-chloro-benzyl)-1-cyclohexyl-1,4,5,6,7,8-hexahydro-cycloheptapyrazole-3-carboxylic acid [(1R)-1-phenyl-ethyl]-amide]	26	4	–
C[C@H](NC(=O)c1nn(C2CCCCC2)c2c1CCCCC2Cc1ccc(F)cc1)c1ccccc1 (stereo partly drawn) [Cpd 64, 1-cyclohexyl-8-(4-fluoro-benzyl)-1,4,5,6,7,8-hexahydro-cycloheptapyrazole-3-carboxylic acid [(1S)-1-phenyl-ethyl]-amide]	51	–	IC50 (CB2 receptor; calculated by linear regression from percent inhibition at various test concentrations, read-out: Cannabinoid CB2 Receptor Binding IC50): 600 nM; inhibition at 1 µM (CB2 receptor; test concentration 1 μM (footnote 1), read-out: CB2 receptor binding percent inhibition): 70%
C[C@H](NC(=O)c1nn(-c2ccncc2)c2c1CCCC/C2=C\c1ccc(Cl)cc1)C1CCCCC1 [Cpd 181, (8E)-8-(4-chloro-benzylidene)-1-pyridin-4-yl-1,4,5,6,7,8-hexahydro-cycloheptapyrazole-3-carboxylic acid [(1S)-1-cyclohexyl-ethyl]-amide]	–	–	inhibition at 0.2 µM (CB1 receptor): 32%; inhibition at 0.2 µM (CB2 receptor; [1]): 57%
COc1ccc(/C=C2\CCCCc3c(C(=O)N[C@@H]4CCC[C@H]4O)nn(-c4ccc(Cl)cc4Cl)c32)cc1 [Cpd 221, (8E)-1-(2,4-dichloro-phenyl)-8-(4-methoxy-benzylidene)-1,4,5,6,7,8-hexahydro-cycloheptapyrazole-3-carboxylic acid [(1R,2R)-2-hydroxy-cyclopentyl)-amide]	–	–	inhibition at 0.2 µM (CB2 receptor; [1]): 24%

— US8378117B2 (priority 2005, dated 2013)
